Data as given in ChEMBL document CHEMBL3797029, “Purinylpyridinylamino-based DFG-in/αC-helix-out B-Raf inhibitors: Applying mutant versus wild-type B-Raf selectivity indices for compound profiling” (Bioorg Med Chem, 2016).

Each compound was assayed against T1, Serine/threonine-protein kinase B-raf (Homo sapiens, UniProt P15056) (assay: Inhibition of wild type B-Raf (unknown origin) assessed as MEK1 phosphorylation using MEK1-Avitag as substrate after 1 hr by HTRF assay).
T1 sequence (P15056 whole entry): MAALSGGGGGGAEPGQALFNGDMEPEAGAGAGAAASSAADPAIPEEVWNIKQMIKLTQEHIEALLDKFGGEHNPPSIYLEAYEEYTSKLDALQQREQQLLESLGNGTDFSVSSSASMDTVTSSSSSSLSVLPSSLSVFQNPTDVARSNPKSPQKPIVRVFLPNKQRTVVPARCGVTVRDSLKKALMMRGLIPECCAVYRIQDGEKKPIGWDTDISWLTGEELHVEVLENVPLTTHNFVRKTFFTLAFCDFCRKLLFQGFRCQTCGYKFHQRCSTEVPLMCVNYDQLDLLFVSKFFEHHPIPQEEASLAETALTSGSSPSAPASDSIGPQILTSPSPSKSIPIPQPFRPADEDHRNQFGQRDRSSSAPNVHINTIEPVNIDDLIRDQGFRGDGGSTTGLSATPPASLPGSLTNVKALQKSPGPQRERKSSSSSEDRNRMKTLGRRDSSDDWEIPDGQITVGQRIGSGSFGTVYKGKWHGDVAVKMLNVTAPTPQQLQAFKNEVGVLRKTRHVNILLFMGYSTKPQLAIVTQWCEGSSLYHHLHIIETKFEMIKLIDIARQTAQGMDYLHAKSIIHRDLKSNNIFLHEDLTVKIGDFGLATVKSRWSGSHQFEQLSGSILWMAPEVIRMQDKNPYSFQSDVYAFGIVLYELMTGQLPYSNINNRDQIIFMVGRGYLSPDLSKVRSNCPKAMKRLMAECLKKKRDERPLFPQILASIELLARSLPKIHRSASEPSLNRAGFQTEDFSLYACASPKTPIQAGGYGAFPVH

| Compound | IC50 [nM] |
| --- | --- |
| O=S(=O)(Nc1ccc(F)c(Nc2ncccc2-c2ncnc3[nH]cnc23)c1F)N1CC[C@@H](O)C1 | 68 |
| O=S(=O)(Nc1ccc(F)c(Nc2ncccc2-c2ncnc3[nH]cnc23)c1F)c1ccccc1 | 17 |
| O=S(=O)(Nc1ccc(F)c(Nc2ncccc2-c2ncnc3[nH]cnc23)c1F)c1ccccn1 | 41 |
| CC(C)CS(=O)(=O)Nc1ccc(F)c(Nc2ncccc2-c2ncnc3[nH]cnc23)c1F | 16 |
| O=S(=O)(Nc1ccc(F)c(Nc2ncccc2-c2ncnc3[nH]cnc23)c1F)c1cccc(F)c1 | 4 |
| CS(=O)(=O)Nc1ccc(F)c(Nc2ncccc2-c2ncnc3[nH]cnc23)c1F | 412 |
| O=S(=O)(Nc1ccc(F)c(Nc2ncccc2-c2ncnc3[nH]cnc23)c1F)C1CCOC1 (stereo not given) | 26 |
| O=S(=O)(CC1CC1)Nc1ccc(F)c(Nc2ncccc2-c2ncnc3[nH]cnc23)c1F | 26 |
| O=S(=O)(Nc1ccc(F)c(Nc2ncccc2-c2ncnc3[nH]cnc23)c1F)N1CCCC1 | 31 |
| O=S(=O)(Nc1ccc(F)c(Nc2ncccc2-c2ncnc3[nH]cnc23)c1F)c1ccc(F)cc1 | 83 |
| O=S(=O)(Nc1ccc(F)c(Nc2ncccc2-c2ncnc3[nH]cnc23)c1F)C1CC1 | 132 |
| CC(C)S(=O)(=O)Nc1ccc(F)c(Nc2ncccc2-c2ncnc3[nH]cnc23)c1F | 66 |
| O=S(=O)(Nc1ccc(F)c(Nc2ncccc2-c2ncnc3[nH]cnc23)c1F)c1ccccc1F | 10 |
| O=S(=O)(Nc1ccc(F)c(Nc2ncccc2-c2ncnc3[nH]cnc23)c1F)c1nccs1 | 2 |
| O=S(=O)(Nc1ccc(F)c(Nc2ncccc2-c2ncnc3[nH]cnc23)c1F)C1CCCC1 | 21 |
| O=S(=O)(Nc1ccc(F)c(Nc2ncccc2-c2ncnc3[nH]cnc23)c1F)N1CCCCC1 | 38 |
| CCCS(=O)(=O)Nc1ccc(F)c(Nc2ncccc2-c2ncnc3[nH]cnc23)c1F | 12 |

These compounds were tested against T2, Serine/threonine-protein kinase B-raf (Homo sapiens, UniProt P15056, V600E) (assay: Inhibition of B-Raf V600E mutant in human A375 cells assessed as ERK phosphorylation preincubated for 1 hr by Western blot method).
Type: cell-based, A-375

T2 sequence (P15056 2-766 V600E limits assumed): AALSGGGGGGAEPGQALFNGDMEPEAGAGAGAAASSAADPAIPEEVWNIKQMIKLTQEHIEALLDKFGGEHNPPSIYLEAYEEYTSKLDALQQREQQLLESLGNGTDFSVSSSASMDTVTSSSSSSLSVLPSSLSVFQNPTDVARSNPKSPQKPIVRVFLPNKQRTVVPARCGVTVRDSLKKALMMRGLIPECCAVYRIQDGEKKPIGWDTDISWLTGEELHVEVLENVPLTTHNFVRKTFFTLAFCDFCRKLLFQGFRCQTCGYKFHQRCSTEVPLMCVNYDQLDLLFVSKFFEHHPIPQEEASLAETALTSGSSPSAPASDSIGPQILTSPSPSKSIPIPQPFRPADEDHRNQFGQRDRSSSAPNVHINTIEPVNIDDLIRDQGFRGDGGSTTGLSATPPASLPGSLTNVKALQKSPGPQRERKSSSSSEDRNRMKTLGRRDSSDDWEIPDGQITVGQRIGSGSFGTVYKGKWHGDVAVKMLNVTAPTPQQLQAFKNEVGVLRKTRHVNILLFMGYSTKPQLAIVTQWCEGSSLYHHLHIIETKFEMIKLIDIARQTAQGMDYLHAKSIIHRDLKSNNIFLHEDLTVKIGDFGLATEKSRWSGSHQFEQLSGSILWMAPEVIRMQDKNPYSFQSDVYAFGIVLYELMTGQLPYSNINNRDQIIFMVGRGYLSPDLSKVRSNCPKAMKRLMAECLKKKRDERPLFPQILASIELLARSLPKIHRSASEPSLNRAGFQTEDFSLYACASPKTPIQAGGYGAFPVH

| Compound | IC50 [nM] |
| --- | --- |
| O=S(=O)(Nc1ccc(F)c(Nc2ncccc2-c2ncnc3[nH]cnc23)c1F)N1CC[C@@H](O)C1 | 233 |
| O=S(=O)(Nc1ccc(F)c(Nc2ncccc2-c2ncnc3[nH]cnc23)c1F)c1ccccc1 | 28 |
| O=S(=O)(Nc1ccc(F)c(Nc2ncccc2-c2ncnc3[nH]cnc23)c1F)c1ccccn1 | 177 |
| CC(C)CS(=O)(=O)Nc1ccc(F)c(Nc2ncccc2-c2ncnc3[nH]cnc23)c1F | 17 |
| O=S(=O)(Nc1ccc(F)c(Nc2ncccc2-c2ncnc3[nH]cnc23)c1F)c1cccc(F)c1 | 15 |
| CS(=O)(=O)Nc1ccc(F)c(Nc2ncccc2-c2ncnc3[nH]cnc23)c1F | 356 |
| O=S(=O)(Nc1ccc(F)c(Nc2ncccc2-c2ncnc3[nH]cnc23)c1F)C1CCOC1 (stereo not given) | 31 |
| O=S(=O)(CC1CC1)Nc1ccc(F)c(Nc2ncccc2-c2ncnc3[nH]cnc23)c1F | 33 |
| O=S(=O)(Nc1ccc(F)c(Nc2ncccc2-c2ncnc3[nH]cnc23)c1F)N1CCCC1 | 44 |
| O=S(=O)(Nc1ccc(F)c(Nc2ncccc2-c2ncnc3[nH]cnc23)c1F)c1ccc(F)cc1 | 242 |
| O=S(=O)(Nc1ccc(F)c(Nc2ncccc2-c2ncnc3[nH]cnc23)c1F)C1CC1 | 173 |
| CC(C)S(=O)(=O)Nc1ccc(F)c(Nc2ncccc2-c2ncnc3[nH]cnc23)c1F | 45 |
| O=S(=O)(Nc1ccc(F)c(Nc2ncccc2-c2ncnc3[nH]cnc23)c1F)c1ccccc1F | 12 |
| O=S(=O)(Nc1ccc(F)c(Nc2ncccc2-c2ncnc3[nH]cnc23)c1F)c1nccs1 | 31 |
| O=S(=O)(Nc1ccc(F)c(Nc2ncccc2-c2ncnc3[nH]cnc23)c1F)C1CCCC1 | 11 |
| O=S(=O)(Nc1ccc(F)c(Nc2ncccc2-c2ncnc3[nH]cnc23)c1F)N1CCCCC1 | 65 |
| CCCS(=O)(=O)Nc1ccc(F)c(Nc2ncccc2-c2ncnc3[nH]cnc23)c1F | 24 |

The compounds below were run on MIA PaCa-2 (assay: Selectivity index, ratio of EC50 for wild type B-Raf in human MIAPaCa2 cells to IC50 for B-Raf V600E mutant in human A375 cells).
Type: cell-based

| Compound | Ratio |
| --- | --- |
| O=S(=O)(Nc1ccc(F)c(Nc2ncccc2-c2ncnc3[nH]cnc23)c1F)N1CC[C@@H](O)C1 | 31 |
| O=S(=O)(Nc1ccc(F)c(Nc2ncccc2-c2ncnc3[nH]cnc23)c1F)c1ccccc1 | 82 |
| O=S(=O)(Nc1ccc(F)c(Nc2ncccc2-c2ncnc3[nH]cnc23)c1F)c1ccccn1 | 45 |
| CC(C)CS(=O)(=O)Nc1ccc(F)c(Nc2ncccc2-c2ncnc3[nH]cnc23)c1F | 85 |
| O=S(=O)(Nc1ccc(F)c(Nc2ncccc2-c2ncnc3[nH]cnc23)c1F)c1cccc(F)c1 | 101 |
| CS(=O)(=O)Nc1ccc(F)c(Nc2ncccc2-c2ncnc3[nH]cnc23)c1F | 19 |
| O=S(=O)(Nc1ccc(F)c(Nc2ncccc2-c2ncnc3[nH]cnc23)c1F)C1CCOC1 (stereo not given) | 48 |
| O=S(=O)(CC1CC1)Nc1ccc(F)c(Nc2ncccc2-c2ncnc3[nH]cnc23)c1F | 65 |
| O=S(=O)(Nc1ccc(F)c(Nc2ncccc2-c2ncnc3[nH]cnc23)c1F)N1CCCC1 | 47 |
| O=S(=O)(Nc1ccc(F)c(Nc2ncccc2-c2ncnc3[nH]cnc23)c1F)c1ccc(F)cc1 | 23 |
| O=S(=O)(Nc1ccc(F)c(Nc2ncccc2-c2ncnc3[nH]cnc23)c1F)C1CC1 | 12 |
| CC(C)S(=O)(=O)Nc1ccc(F)c(Nc2ncccc2-c2ncnc3[nH]cnc23)c1F | 34 |
| O=S(=O)(Nc1ccc(F)c(Nc2ncccc2-c2ncnc3[nH]cnc23)c1F)c1ccccc1F | 73 |
| O=S(=O)(Nc1ccc(F)c(Nc2ncccc2-c2ncnc3[nH]cnc23)c1F)c1nccs1 | 25 |
| O=S(=O)(Nc1ccc(F)c(Nc2ncccc2-c2ncnc3[nH]cnc23)c1F)C1CCCC1 | 164 |
| O=S(=O)(Nc1ccc(F)c(Nc2ncccc2-c2ncnc3[nH]cnc23)c1F)N1CCCCC1 | 19 |
| CCCS(=O)(=O)Nc1ccc(F)c(Nc2ncccc2-c2ncnc3[nH]cnc23)c1F | 39 |

The compounds below were run against T1, Serine/threonine-protein kinase B-raf (assay: Inhibition of wild type B-Raf in human MIAPaCa2 cells assessed as reduction in ERK phosphorylation preincubated for 1 hr by Western blot method).
Type: cell-based, MIA PaCa-2

| Compound | EC50 [nM] |
| --- | --- |
| O=S(=O)(Nc1ccc(F)c(Nc2ncccc2-c2ncnc3[nH]cnc23)c1F)N1CC[C@@H](O)C1 | 7190 |
| O=S(=O)(Nc1ccc(F)c(Nc2ncccc2-c2ncnc3[nH]cnc23)c1F)c1ccccc1 | 2290 |
| O=S(=O)(Nc1ccc(F)c(Nc2ncccc2-c2ncnc3[nH]cnc23)c1F)c1ccccn1 | 7940 |
| CC(C)CS(=O)(=O)Nc1ccc(F)c(Nc2ncccc2-c2ncnc3[nH]cnc23)c1F | 1450 |
| O=S(=O)(Nc1ccc(F)c(Nc2ncccc2-c2ncnc3[nH]cnc23)c1F)c1cccc(F)c1 | 1510 |
| CS(=O)(=O)Nc1ccc(F)c(Nc2ncccc2-c2ncnc3[nH]cnc23)c1F | 6690 |
| O=S(=O)(Nc1ccc(F)c(Nc2ncccc2-c2ncnc3[nH]cnc23)c1F)C1CCOC1 (stereo not given) | 1480 |
| O=S(=O)(CC1CC1)Nc1ccc(F)c(Nc2ncccc2-c2ncnc3[nH]cnc23)c1F | 2140 |
| O=S(=O)(Nc1ccc(F)c(Nc2ncccc2-c2ncnc3[nH]cnc23)c1F)N1CCCC1 | 2070 |
| O=S(=O)(Nc1ccc(F)c(Nc2ncccc2-c2ncnc3[nH]cnc23)c1F)c1ccc(F)cc1 | 5650 |
| O=S(=O)(Nc1ccc(F)c(Nc2ncccc2-c2ncnc3[nH]cnc23)c1F)C1CC1 | 2070 |
| CC(C)S(=O)(=O)Nc1ccc(F)c(Nc2ncccc2-c2ncnc3[nH]cnc23)c1F | 1540 |
| O=S(=O)(Nc1ccc(F)c(Nc2ncccc2-c2ncnc3[nH]cnc23)c1F)c1ccccc1F | 873 |
| O=S(=O)(Nc1ccc(F)c(Nc2ncccc2-c2ncnc3[nH]cnc23)c1F)c1nccs1 | 783 |
| O=S(=O)(Nc1ccc(F)c(Nc2ncccc2-c2ncnc3[nH]cnc23)c1F)C1CCCC1 | 1800 |
| O=S(=O)(Nc1ccc(F)c(Nc2ncccc2-c2ncnc3[nH]cnc23)c1F)N1CCCCC1 | 1220 |
| CCCS(=O)(=O)Nc1ccc(F)c(Nc2ncccc2-c2ncnc3[nH]cnc23)c1F | 936 |

These compounds were tested against T2, Serine/threonine-protein kinase B-raf (assay: Inhibition of B-Raf V600E mutant (unknown origin) assessed as MEK1 phosphorylation using MEK1-Avitag as substrate after 1 hr by HTRF assay).

| Compound | IC50 [nM] |
| --- | --- |
| O=S(=O)(Nc1ccc(F)c(Nc2ncccc2-c2ncnc3[nH]cnc23)c1F)N1CC[C@@H](O)C1 | 16 |
| O=S(=O)(Nc1ccc(F)c(Nc2ncccc2-c2ncnc3[nH]cnc23)c1F)c1ccccc1 | 7 |
| O=S(=O)(Nc1ccc(F)c(Nc2ncccc2-c2ncnc3[nH]cnc23)c1F)c1ccccn1 | 21 |
| CC(C)CS(=O)(=O)Nc1ccc(F)c(Nc2ncccc2-c2ncnc3[nH]cnc23)c1F | 6 |
| O=S(=O)(Nc1ccc(F)c(Nc2ncccc2-c2ncnc3[nH]cnc23)c1F)c1cccc(F)c1 | 3 |
| CS(=O)(=O)Nc1ccc(F)c(Nc2ncccc2-c2ncnc3[nH]cnc23)c1F | 360 |
| O=S(=O)(Nc1ccc(F)c(Nc2ncccc2-c2ncnc3[nH]cnc23)c1F)C1CCOC1 (stereo not given) | 5 |
| O=S(=O)(CC1CC1)Nc1ccc(F)c(Nc2ncccc2-c2ncnc3[nH]cnc23)c1F | 8 |
| O=S(=O)(Nc1ccc(F)c(Nc2ncccc2-c2ncnc3[nH]cnc23)c1F)N1CCCC1 | 2 |
| O=S(=O)(Nc1ccc(F)c(Nc2ncccc2-c2ncnc3[nH]cnc23)c1F)c1ccc(F)cc1 | 36 |
| O=S(=O)(Nc1ccc(F)c(Nc2ncccc2-c2ncnc3[nH]cnc23)c1F)C1CC1 | 41 |
| CC(C)S(=O)(=O)Nc1ccc(F)c(Nc2ncccc2-c2ncnc3[nH]cnc23)c1F | 14 |
| O=S(=O)(Nc1ccc(F)c(Nc2ncccc2-c2ncnc3[nH]cnc23)c1F)c1ccccc1F | 3 |
| O=S(=O)(Nc1ccc(F)c(Nc2ncccc2-c2ncnc3[nH]cnc23)c1F)c1nccs1 | 1 |
| O=S(=O)(Nc1ccc(F)c(Nc2ncccc2-c2ncnc3[nH]cnc23)c1F)C1CCCC1 | 2 |
| O=S(=O)(Nc1ccc(F)c(Nc2ncccc2-c2ncnc3[nH]cnc23)c1F)N1CCCCC1 | 15 |
| CCCS(=O)(=O)Nc1ccc(F)c(Nc2ncccc2-c2ncnc3[nH]cnc23)c1F | 9 |
